Kd data for three compounds are collected here from publication doi:10.64898/2025.12.03.692196v2, “Dimerization and Threonine-Dependent Stabilization Govern Human YRDC Catalysis” (biorxiv, 2026).

Holding throughout (test): biochemical
Holding throughout (design): SYPRO Orange DSF; apparent Kd from Tm versus ligand concentration

The target of experiment [1] is T1, YRDCWT (human YRDC, ΔN43) (Homo sapiens, UniProt Q86U90, C121A).
T1 construct: lacks first 43 residues (N-terminal truncation); N-terminal His6 tag removed with TEV; E. coli BL21(DE3); homodimer
T1 sequence (Q86U90 44-279 C121A): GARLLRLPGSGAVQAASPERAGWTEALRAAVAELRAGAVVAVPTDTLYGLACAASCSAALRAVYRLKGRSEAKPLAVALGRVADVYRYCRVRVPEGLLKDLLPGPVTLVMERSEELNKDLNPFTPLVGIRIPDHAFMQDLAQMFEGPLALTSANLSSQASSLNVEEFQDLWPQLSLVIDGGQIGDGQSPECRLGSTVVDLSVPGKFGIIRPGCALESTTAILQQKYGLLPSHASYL
Conditions: With L-threonine; DSF apparent KD. How it is done:
(§1) Reactions were prepared in a MicroAmp™ 96-well optical reaction plate (Fisher Scientific) with a final volume of 20 μL per well, in assay buffer (50 mM Tricine pH 8.5, 10 mM MgCl₂) with 8 μM YRDC, and 5X SYPRO Orange dye (Invitrogen). The concentrations of substrates, including ATP, L-threonine, and NaHCO3, were varied based on the reaction type. In most cases wild-type YRDC and its mutants were assessed under various conditions, including enzyme alone, enzyme with ATP concentrations ranging from 10 µM to 500 µM, enzyme with L-threonine concentrations between 0.5 mM and 50 mM, either in the presence or absence of 500 µM ATP, and enzyme with NaHCO3 concentrations from 10 mM to 500 mM in the presence of both 500 µM ATP and 25 mM L-threonine. Fluorescence emission was recorded using Applied Biosystems® QuantStudio 1 Real-Time PCR system (λex = 520 nm, λem = 558 nm). Temperature increases were performed over the range of 25–95 °C, with increments of 1 °C/min, while changes in fluorescence intensity were continuously measured. Each experiment was conducted in triplicate, and the data are presented as the mean ± standard deviation. Control reactions, prepared without the enzyme, were used to account for background fluorescence and were subtracted from experimental measurements. Melting curves were fitted using a Boltzmann sigmoidal model, and thermal stability (Tₘ) values were determined from the inflection point of the curve. The dissociation constant (KD) of the enzyme with each substrate is calculated based on the DSF single binding equation[45]: [drawing 1] Where Tm,0 and Tm,∞refer to the melting temperature (Tm) in °C at zero and infinite ligand concentrations, respectively, P represents the protein concentration and Kd,app is the apparent dissociation constant obtained from ligand-dependent thermal stabilisation.

Experiment [2] addresses T2, YRDCWT (human YRDC, ΔN43) (Homo sapiens, UniProt Q86U90, R253K).
T2 construct: lacks first 43 residues (N-terminal truncation); N-terminal His6 tag removed with TEV; E. coli BL21(DE3); homodimer
T2 sequence (Q86U90 44-279 R253K): T1 sequence (Q86U90 44-279 C121A) with A78C, R210K
The settings on record: With L-threonine; DSF apparent KD. How it is done: as §1

The target in a further experiment is T3, YRDCS195A (Homo sapiens, UniProt Q86U90, S238A).
T3 construct: gene YRDC; lacks N-terminal 43 residues; printed numbering S195A is of the truncated protein
T3 sequence (Q86U90 1-279 S238A): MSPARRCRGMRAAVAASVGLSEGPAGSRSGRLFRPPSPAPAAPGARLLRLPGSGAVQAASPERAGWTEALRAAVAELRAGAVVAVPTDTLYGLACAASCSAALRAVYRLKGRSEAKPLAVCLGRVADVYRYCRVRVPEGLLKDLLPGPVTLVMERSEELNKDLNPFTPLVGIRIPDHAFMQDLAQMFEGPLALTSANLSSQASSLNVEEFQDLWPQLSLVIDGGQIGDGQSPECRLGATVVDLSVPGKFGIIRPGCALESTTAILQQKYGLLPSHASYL
Conditions: With L-threonine; DSF apparent KD. How it is done: as §1

For experiment [3], the target named is T4, YRDCWT (human YRDC, ΔN43) (Homo sapiens, UniProt Q86U90).
T4 construct: lacks first 43 residues (N-terminal truncation); N-terminal His6 tag removed with TEV; E. coli BL21(DE3); homodimer
T4 sequence (Q86U90 with tags, fused parts or gaps DEL265-265): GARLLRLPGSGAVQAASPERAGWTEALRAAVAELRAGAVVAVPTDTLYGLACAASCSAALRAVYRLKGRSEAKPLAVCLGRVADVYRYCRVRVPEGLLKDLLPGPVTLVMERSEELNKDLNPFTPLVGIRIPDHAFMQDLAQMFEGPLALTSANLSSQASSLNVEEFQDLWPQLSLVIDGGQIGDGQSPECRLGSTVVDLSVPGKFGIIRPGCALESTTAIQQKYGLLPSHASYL
Conditions: With ATP; DSF apparent KD. How it is done: as §1

The target in experiment [4] is T5, YRDCWT (human YRDC, ΔN43) (Homo sapiens, UniProt Q86U90).
T5 construct: lacks first 43 residues (N-terminal truncation); N-terminal His6 tag removed with TEV; E. coli BL21(DE3); homodimer
T5 sequence (Q86U90 44-279 C121A): T1 sequence (Q86U90 44-279 C121A)
Conditions: DSF apparent KD. As for the experimental part: as §1

The target in experiment [5] is T6, YRDCWT (human YRDC, ΔN43) (Homo sapiens, UniProt Q86U90, I221T).
T6 construct: lacks first 43 residues (N-terminal truncation); N-terminal His6 tag removed with TEV; E. coli BL21(DE3); homodimer
T6 sequence (Q86U90 44-279 I221T): T1 sequence (Q86U90 44-279 C121A) with A78C, I178T
The settings on record: DSF apparent KD. As for the experimental part:
as §1

A further experiment concerns the target T7, (human YRDC, ΔN43) (Homo sapiens, UniProt Q86U90, A84V).
T7 construct: lacks first 43 residues (N-terminal truncation); N-terminal His6 tag removed with TEV; E. coli BL21(DE3); homodimer
T7 sequence (Q86U90 44-279 A84V): T1 sequence (Q86U90 44-279 C121A) with A41V, A78C
Conditions: With ATP and L-threonine; DSF apparent KD. As for the experimental part: as §1

Each structure is given as a SMILES string. Where a chain is given by its changes, count along the chain named.

On to `Nc1ncnc2c1ncn2[C@@H]1O[C@H](COP(=O)(O)OP(=O)(O)OP(=O)(O)O)[C@@H](O)[C@H]1O` [ATP], for which the Kd in experiment [1] worked out at 133 ± 29.7 µM; in experiment [2] it was 148 ± 112 µM; on YRDCS195A, 48.9 ± 37.8 µM.

`C[C@@H](O)[C@H](N)C(=O)O` [L-threonine]: the Kd in experiment [3] worked out at 2100 ± 700 µM; in experiment [4] (With ATP) it was 1200 ± 300 µM; in experiment [5] (With ATP) it was 400 ± 100 µM.

Take `O=C(O)O` [bicarbonate]: the Kd came out at 6500 ± 2000 µM on (human YRDC, ΔN43); 3700 ± 2000 µM in experiment [4] (With ATP and L-threonine); 8300 ± 4200 µM in experiment [5] (With ATP and L-threonine).
